In ChEMBL document CHEMBL1142149, “In vitro activities of the lipopeptides palmitoyl (Pal)-Lys-Lys-NH(2) and Pal-Lys-Lys alone and in combination with antimicrobial agents against multiresistant gram-positive cocci” (2007):
In brackets after ≈: the same amount, converted by molar mass. Activity calls are given as the source filed them. No cut-off for these calls is given here.

Experiments:
Streptococcus pyogenes = test: Antimicrobial activity against Streptococcus pyogenes ATCC 19615; format: functional; settings: for MIC50 / MIC90: Streptococcus pyogenes, ATCC 19615
Enterococcus faecalis [1] = test: Antimicrobial activity against vancomycin-resistant Enterococcus faecalis ATCC 51299; format: functional; settings: for MIC50 / MIC90: Enterococcus faecalis, ATCC 51299
Staphylococcus aureus [2] = test: Antimicrobial activity against methicillin-resistant Staphylococcus aureus ATCC 43300; format: functional; settings: for MIC50 / MIC90: Staphylococcus aureus, ATCC 43300
Enterococcus faecalis [3] = test: Antimicrobial activity against vancomycin-susceptible Enterococcus faecalis ATCC 29212; format: functional; settings: for MIC50 / MIC90: Enterococcus faecalis, ATCC 29212
Prescottella equi = test: Antimicrobial activity against Rhodococcus equi ATCC 6939; format: functional; settings: for MIC50 / MIC90: Rhodococcus (subgen. Prescottella) equi, ATCC 6939
Staphylococcus aureus [4] = test: Antimicrobial activity against methicillin-susceptible Staphylococcus aureus ATCC 29213; format: functional; settings: for MIC50 / MIC90: Staphylococcus aureus, ATCC 29213
Erythrocyte [5] = test: Effect on hemolytic activity in human RBC above 20 mg/liter; format: functional, cell-based
Erythrocyte [6] = test: Effect on hemolytic activity in human RBC above 50 mg/liter; format: functional, cell-based

Compound	MBC50 (Streptococcus pyogenes)	MBC90 (Streptococcus pyogenes)	MIC50 (Streptococcus pyogenes)	MIC90 (Streptococcus pyogenes)	MIC50 (Enterococcus faecalis [1])	MIC90 (Enterococcus faecalis [1])	MIC50 (Staphylococcus aureus [2])	MIC90 (Staphylococcus aureus [2])	MBC50 (Enterococcus faecalis [3])	MBC90 (Enterococcus faecalis [3])	MIC50 (Enterococcus faecalis [3])	MIC90 (Enterococcus faecalis [3])	MBC50 (Prescottella equi)	MBC90 (Prescottella equi)	MIC50 (Prescottella equi)	MIC90 (Prescottella equi)	MBC50 (Staphylococcus aureus [4])	MBC90 (Staphylococcus aureus [4])	MIC50 (Staphylococcus aureus [4])	MIC90 (Staphylococcus aureus [4])	also measured
C[C@H]1c2cccc(O)c2C(=O)C2=C(O)[C@]3(O)C(=O)C(C(N)=O)=C(O)[C@@H](N(C)C)[C@@H]3[C@@H](O)[C@@H]21.O [DOXYCYCLINE]	8 µg/mL	16 µg/mL	2 µg/mL	8 µg/mL	16 µg/mL	64 µg/mL	4 µg/mL	16 µg/mL	16 µg/mL	64 µg/mL	4 µg/mL	32 µg/mL	32 µg/mL	128 µg/mL	1 µg/mL	2 µg/mL	8 µg/mL	32 µg/mL	2 µg/mL	8 µg/mL	–
CN[C@H](CC(C)C)C(=O)N[C@H]1C(=O)N[C@@H](CC(N)=O)C(=O)N[C@H]2C(=O)N[C@H]3C(=O)N[C@H](C(=O)N[C@H](C(=O)O)c4cc(O)cc(O)c4-c4cc3ccc4O)[C@H](O)c3ccc(c(Cl)c3)Oc3cc2cc(c3O[C@@H]2O[C@H](CO)[C@@H](O)[C@H](O)[C@H]2O[C@H]2C[C@](C)(N)[C@H](O)[C@H](C)O2)Oc2ccc(cc2Cl)[C@H]1O [VANCOMYCIN]	1 µg/mL (≈ 0.69 µM)	2 µg/mL (≈ 1.38 µM)	0.5 µg/mL (≈ 0.345 µM)	1 µg/mL (≈ 0.69 µM)	32 µg/mL (≈ 22.1 µM)	64 µg/mL (≈ 44.2 µM)	0.5 µg/mL (≈ 0.345 µM)	2 µg/mL (≈ 1.38 µM)	2 µg/mL (≈ 1.38 µM)	4 µg/mL (≈ 2.76 µM)	1 µg/mL (≈ 0.69 µM)	2 µg/mL (≈ 1.38 µM)	8 µg/mL (≈ 5.52 µM)	16 µg/mL (≈ 11 µM)	0.5 µg/mL (≈ 0.345 µM)	1 µg/mL (≈ 0.69 µM)	0.5 µg/mL (≈ 0.345 µM)	2 µg/mL (≈ 1.38 µM)	0.5 µg/mL (≈ 0.345 µM)	1 µg/mL (≈ 0.69 µM)	MBC50 (Enterococcus faecalis [1]): 64 µg/mL (≈ 44.2 µM); MBC90 (Enterococcus faecalis [1]): 256 µg/mL (≈ 177 µM); MBC50 (Staphylococcus aureus [2]): 0.5 µg/mL (≈ 0.345 µM); MBC90 (Staphylococcus aureus [2]): 2 µg/mL (≈ 1.38 µM)
CCCCCCCCCCCCCCCC(=O)N[C@@H](CCCCN)C(=O)N[C@@H](CCCCN)C(N)=O	2 µg/mL (≈ 3.91 µM)	4 µg/mL (≈ 7.82 µM)	1 µg/mL (≈ 1.95 µM)	2 µg/mL (≈ 3.91 µM)	2 µg/mL (≈ 3.91 µM)	4 µg/mL (≈ 7.82 µM)	4 µg/mL (≈ 7.82 µM)	8 µg/mL (≈ 15.6 µM)	4 µg/mL (≈ 7.82 µM)	8 µg/mL (≈ 15.6 µM)	2 µg/mL (≈ 3.91 µM)	4 µg/mL (≈ 7.82 µM)	8 µg/mL (≈ 15.6 µM)	32 µg/mL (≈ 62.5 µM)	4 µg/mL (≈ 7.82 µM)	16 µg/mL (≈ 31.3 µM)	8 µg/mL (≈ 15.6 µM)	16 µg/mL (≈ 31.3 µM)	4 µg/mL (≈ 7.82 µM)	8 µg/mL (≈ 15.6 µM)	Activity (Erythrocyte [5]): Active; MBC90 (Enterococcus faecalis [1]): 16 µg/mL (≈ 31.3 µM)
CCCCCCCCCCCCCCCC(=O)N[C@@H](CCCCN)C(=O)N[C@@H](CCCCN)C(=O)O	2 µg/mL (≈ 3.9 µM)	4 µg/mL (≈ 7.8 µM)	1 µg/mL (≈ 1.95 µM)	2 µg/mL (≈ 3.9 µM)	2 µg/mL (≈ 3.9 µM)	4 µg/mL (≈ 7.8 µM)	4 µg/mL (≈ 7.8 µM)	8 µg/mL (≈ 15.6 µM)	4 µg/mL (≈ 7.8 µM)	8 µg/mL (≈ 15.6 µM)	2 µg/mL (≈ 3.9 µM)	4 µg/mL (≈ 7.8 µM)	4 µg/mL (≈ 7.8 µM)	16 µg/mL (≈ 31.2 µM)	2 µg/mL (≈ 3.9 µM)	16 µg/mL (≈ 31.2 µM)	8 µg/mL (≈ 15.6 µM)	16 µg/mL (≈ 31.2 µM)	4 µg/mL (≈ 7.8 µM)	8 µg/mL (≈ 15.6 µM)	Activity (Erythrocyte [6]): Active; MBC90 (Enterococcus faecalis [1]): 16 µg/mL (≈ 31.2 µM)
CC(=O)NC[C@H]1CN(c2ccc(N3CCOCC3)c(F)c2)C(=O)O1 [LINEZOLID]	1 µg/mL (≈ 2.96 µM)	2 µg/mL (≈ 5.93 µM)	0.5 µg/mL (≈ 1.48 µM)	1 µg/mL (≈ 2.96 µM)	1 µg/mL (≈ 2.96 µM)	2 µg/mL (≈ 5.93 µM)	0.5 µg/mL (≈ 1.48 µM)	1 µg/mL (≈ 2.96 µM)	2 µg/mL (≈ 5.93 µM)	4 µg/mL (≈ 11.9 µM)	1 µg/mL (≈ 2.96 µM)	2 µg/mL (≈ 5.93 µM)	8 µg/mL (≈ 23.7 µM)	16 µg/mL (≈ 47.4 µM)	0.5 µg/mL (≈ 1.48 µM)	1 µg/mL (≈ 2.96 µM)	1 µg/mL (≈ 2.96 µM)	2 µg/mL (≈ 5.93 µM)	0.5 µg/mL (≈ 1.48 µM)	2 µg/mL (≈ 5.93 µM)	MBC50 (Enterococcus faecalis [1]): 4 µg/mL (≈ 11.9 µM); MBC50 (Staphylococcus aureus [2]): 0.5 µg/mL (≈ 1.48 µM)
C[C@@H](O)[C@H]1C(=O)N2C(C(=O)O)=C(SCCNC=N)C[C@H]12 [IMIPENEM ANHYDROUS]	1 µg/mL (≈ 3.34 µM)	4 µg/mL (≈ 13.4 µM)	0.5 µg/mL (≈ 1.67 µM)	1 µg/mL (≈ 3.34 µM)	16 µg/mL (≈ 53.4 µM)	64 µg/mL (≈ 214 µM)	16 µg/mL (≈ 53.4 µM)	128 µg/mL (≈ 428 µM)	16 µg/mL (≈ 53.4 µM)	64 µg/mL (≈ 214 µM)	4 µg/mL (≈ 13.4 µM)	16 µg/mL (≈ 53.4 µM)	8 µg/mL (≈ 26.7 µM)	16 µg/mL (≈ 53.4 µM)	0.25 µg/mL (≈ 0.835 µM)	1 µg/mL (≈ 3.34 µM)	4 µg/mL (≈ 13.4 µM)	8 µg/mL (≈ 26.7 µM)	0.5 µg/mL (≈ 1.67 µM)	2 µg/mL (≈ 6.68 µM)	MBC50 (Enterococcus faecalis [1]): 64 µg/mL (≈ 214 µM); MBC90 (Enterococcus faecalis [1]): 128 µg/mL (≈ 428 µM); MBC50 (Staphylococcus aureus [2]): 64 µg/mL (≈ 214 µM); MBC90 (Staphylococcus aureus [2]): 256 µg/mL (≈ 855 µM)
CC[C@H]1OC(=O)[C@H](C)[C@@H](O[C@H]2C[C@@](C)(OC)[C@@H](O)[C@H](C)O2)[C@H](C)[C@@H](O[C@@H]2O[C@H](C)C[C@H](N(C)C)[C@H]2O)[C@](C)(O)C[C@@H](C)C(=O)[C@H](C)[C@@H](O)[C@]1(C)O [ERYTHROMYCIN]	8 µg/mL (≈ 10.9 µM)	32 µg/mL (≈ 43.6 µM)	4 µg/mL (≈ 5.45 µM)	8 µg/mL (≈ 10.9 µM)	16 µg/mL (≈ 21.8 µM)	64 µg/mL (≈ 87.2 µM)	4 µg/mL (≈ 5.45 µM)	32 µg/mL (≈ 43.6 µM)	32 µg/mL (≈ 43.6 µM)	–	8 µg/mL (≈ 10.9 µM)	32 µg/mL (≈ 43.6 µM)	32 µg/mL (≈ 43.6 µM)	64 µg/mL (≈ 87.2 µM)	0.5 µg/mL (≈ 0.681 µM)	2 µg/mL (≈ 2.73 µM)	16 µg/mL (≈ 21.8 µM)	64 µg/mL (≈ 87.2 µM)	4 µg/mL (≈ 5.45 µM)	8 µg/mL (≈ 10.9 µM)	MBC50 (Staphylococcus aureus [2]): 32 µg/mL (≈ 43.6 µM)
CC1(C)S[C@@H]2[C@H](NC(=O)[C@H](N)c3ccc(O)cc3)C(=O)N2[C@H]1C(=O)O [AMOXICILLIN]	4 µg/mL (≈ 10.9 µM)	8 µg/mL (≈ 21.9 µM)	0.25 µg/mL (≈ 0.684 µM)	2 µg/mL (≈ 5.47 µM)	16 µg/mL (≈ 43.8 µM)	64 µg/mL (≈ 175 µM)	32 µg/mL (≈ 87.6 µM)	128 µg/mL (≈ 350 µM)	16 µg/mL (≈ 43.8 µM)	64 µg/mL (≈ 175 µM)	4 µg/mL (≈ 10.9 µM)	16 µg/mL (≈ 43.8 µM)	8 µg/mL (≈ 21.9 µM)	32 µg/mL (≈ 87.6 µM)	1 µg/mL (≈ 2.74 µM)	2 µg/mL (≈ 5.47 µM)	8 µg/mL (≈ 21.9 µM)	16 µg/mL (≈ 43.8 µM)	1 µg/mL (≈ 2.74 µM)	4 µg/mL (≈ 10.9 µM)	MBC50 (Enterococcus faecalis [1]): 64 µg/mL (≈ 175 µM); MBC90 (Enterococcus faecalis [1]): 128 µg/mL (≈ 350 µM); MBC50 (Staphylococcus aureus [2]): 64 µg/mL (≈ 175 µM); MBC90 (Staphylococcus aureus [2]): 256 µg/mL (≈ 701 µM)
